According to ChEMBL document CHEMBL5113494, “Novel difluoromethyl-containing 1-((4-methoxy-3-(piperazin-1-yl)phenyl)sulfonyl)-1H-indole scaffold as potent 5-HT6R antagonists: Design, synthesis, biological evaluation, and early in vivo cognition-enhancing studies” (Bioorg Med Chem, 2022):

How the values were obtained:
physchem [1] = conditions: octanol/water
physchem [2] = assay: physchem
[3] = Sprague-Dawley, rat, in vivo, iv, 2 mg/kg, 24 h
in vivo [4] = conditions: Sprague-Dawley, rat, iv, 2 mg/kg
in vivo [5] = conditions: Sprague-Dawley, rat, po, 5 mg/kg
in vivo [6] = conditions: Sprague-Dawley, rat, po, 5 mg/kg; remark: listed apart in the source
in vivo [7] = conditions: Sprague-Dawley, rat, po, 5 mg/kg; remark: listed apart in the source
in vivo [8] = conditions: Sprague-Dawley, rat, po, 5 mg/kg; remark: listed apart in the source

| Structure (SMILES) | logP (physchem [1]) | pKa (physchem [2]) | AUCt [3] | Cmax at 24 h (in vivo [4]) | Cmax at 24 h (in vivo [5]) | AUC(0-t) at 24 h (in vivo [6]) | half-life at 24 h (in vivo [7]) | bioavailability at 24 h (in vivo [8]) |
| --- | --- | --- | --- | --- | --- | --- | --- | --- |
| COc1ccc(S(=O)(=O)n2cc(C(F)F)c3cc(Cl)ccc32)cc1N1CCNCC1 | 3.85 | 8.66 |  |  |  |  |  |  |
| COc1ccc(S(=O)(=O)n2cc(C(F)F)c3ccc(F)cc32)cc1N1CCNCC1 | 3.39 | 8.62 | 290 ng·h/mL | 77 ng/mL | 24 ng/mL | 102 ng·h/mL | 3.4 h | 14.4% |
| COc1ccc(S(=O)(=O)n2cc(C)c3cc(F)ccc32)cc1N1CCNCC1 | 3.22 |  |  |  |  |  |  |  |
| COc1ccc(S(=O)(=O)n2ccc3ccc(Br)cc32)cc1N1CCNCC1 | 3.73 | 8.68 | 153 ng·h/mL | 133 ng/mL | 10 ng/mL | 32 ng·h/mL | 2.1 h | 9.35% |
| COc1ccc(S(=O)(=O)n2cc(C(F)F)c3cc(F)ccc32)cc1N1CCNCC1 | 3.31 | 8.78 |  |  |  |  |  |  |
| COc1ccc(S(=O)(=O)n2cc(C)c3ccc(F)cc32)cc1N1CCNCC1 | 3.3 | 8.78 |  |  |  |  |  |  |
